# Laboratory results from patent US20040037843A1, “Inducing cellular immune responses to prostate cancer antigens using peptide and nucleic acid compositions” (priority 2003, published 2004).
# Biological target: HLA-A*0201 (Homo sapiens, UniProt P04439, D140Y/D185E/D98H/E176V/E277Q/G131W/G231S/I119V/I121R/I166T/I218V/L300P/L318F/N151K/N90K/P208A/P217A/Q86G/Q94H/R138H/R169H/T345S)
# Test: HLA class I binding assay, purified HLA, inhibition of 125I-labelled probe peptide
# Details: Binding affinity, Table XXII group headings ≦ 200 nM / > 200 nM; binding to HLA-A*0201
row,Compound,IC50
1,CC(C)C[C@H](NC(=O)[C@H](CC(C)C)NC(=O)CNC(=O)[C@H](CC(N)=O)NC(=O)[C@H](Cc1ccc(O)cc1)NC(=O)[C@@H](NC(=O)[C@H](CC(=O)O)NC(=O)[C@H](CC(C)C)NC(=O)[C@H](C)N)C(C)C)C(=O)O [PAP.299],≤ 200 nM

# Same assay, conditions: Table XXII group headings ≦ 200 nM / > 200 nM; binding to HLA-A*0201; read-out: Binding affinity
row,Compound,IC50
1,CC(C)C[C@H](NC(=O)[C@H](CO)NC(=O)[C@H](CC(C)C)NC(=O)[C@H](CO)NC(=O)[C@H](C)NC(=O)[C@H](C)NC(=O)[C@H](CCCNC(=N)N)NC(=O)[C@H](C)NC(=O)[C@H](CC(C)C)NC(=O)[C@H](CC(C)C)NC(=O)[C@@H](N)CC(C)C)C(=O)O [PAP.6],≤ 200 nM
2,CC(C)C[C@H](NC(=O)[C@@H](N)Cc1ccccc1)C(=O)N[C@@H](CC(N)=O)C(=O)N[C@@H](CCC(=O)O)C(=O)N[C@@H](CO)C(=O)N[C@@H](Cc1ccc(O)cc1)C(=O)N[C@@H](CCCCN)C(=O)N[C@@H](Cc1c[nH]cn1)C(=O)N[C@@H](CCC(=O)O)C(=O)N[C@@H](CCC(N)=O)C(=O)N[C@H](C(=O)O)C(C)C [PAP.92],≤ 200 nM
3,CC(C)C[C@H](NC(=O)[C@@H](N)CC(C)C)C(=O)N[C@@H](Cc1c[nH]cn1)C(=O)N[C@@H](CCC(=O)O)C(=O)N[C@H](C(=O)N[C@@H](CC(=O)O)C(=O)N[C@@H](CO)C(=O)N[C@@H](C)C(=O)N[C@H](C(=O)O)C(C)C)[C@@H](C)O [PSM.4],> 200 nM
4,CC(C)C[C@H](NC(=O)[C@H](Cc1ccccc1)NC(=O)[C@H](Cc1ccccc1)NC(=O)CNC(=O)CNC(=O)[C@H](C)NC(=O)[C@H](CC(C)C)NC(=O)[C@@H](NC(=O)[C@H](CC(C)C)NC(=O)[C@H](C)N)C(C)C)C(=O)O [PSM.25],> 200 nM
5,CC(C)C[C@H](NC(=O)[C@H](Cc1ccccc1)NC(=O)[C@H](Cc1ccccc1)NC(=O)CNC(=O)CNC(=O)[C@H](C)NC(=O)[C@H](CC(C)C)NC(=O)[C@@H](NC(=O)[C@@H](N)CC(C)C)C(C)C)C(=O)O [PSM.26],≤ 200 nM
6,CC(C)C[C@H](NC(=O)CN)C(=O)N[C@@H](CC(C)C)C(=O)NCC(=O)N[C@@H](CO)C(=O)N[C@H](C(=O)N[C@@H](CCC(=O)O)C(=O)N[C@@H](Cc1c[nH]c2ccccc12)C(=O)N[C@@H](C)C(=O)O)[C@@H](C)O [PSM.427],> 200 nM
7,CC(C)C[C@H](NC(=O)[C@@H](N)CCCCN)C(=O)NCC(=O)N[C@@H](CO)C(=O)NCC(=O)N[C@@H](CC(N)=O)C(=O)N[C@@H](CC(=O)O)C(=O)N[C@@H](Cc1ccccc1)C(=O)N[C@@H](CCC(=O)O)C(=O)N[C@H](C(=O)O)C(C)C [PSM.514],> 200 nM
8,CC[C@H](C)[C@H](NC(=O)[C@H](Cc1ccccc1)NC(=O)[C@H](C)NC(=O)[C@H](CCCNC(=N)N)NC(=O)[C@H](CCC(=O)O)NC(=O)[C@H](CC(C)C)NC(=O)[C@H](Cc1ccccc1)NC(=O)[C@H](CCSC)NC(=O)[C@H](CC(C)C)NC(=O)[C@@H](N)CCC(N)=O)C(=O)O [PSM.667],≤ 200 nM
